Where two headings read alike, the source gives them in different places.
How the values were obtained:
5-HT2C (h) [1] = target: T1, 5-HT2C (h) (Homo sapiens, UniProt P28335); assay: 5-HT2C (h) agonist radioligand [125I](±)DOI binding
T1 construct: expressed in transfected cells; host or cells: HEK-293 cells
T1 sequence (P28335 33-458): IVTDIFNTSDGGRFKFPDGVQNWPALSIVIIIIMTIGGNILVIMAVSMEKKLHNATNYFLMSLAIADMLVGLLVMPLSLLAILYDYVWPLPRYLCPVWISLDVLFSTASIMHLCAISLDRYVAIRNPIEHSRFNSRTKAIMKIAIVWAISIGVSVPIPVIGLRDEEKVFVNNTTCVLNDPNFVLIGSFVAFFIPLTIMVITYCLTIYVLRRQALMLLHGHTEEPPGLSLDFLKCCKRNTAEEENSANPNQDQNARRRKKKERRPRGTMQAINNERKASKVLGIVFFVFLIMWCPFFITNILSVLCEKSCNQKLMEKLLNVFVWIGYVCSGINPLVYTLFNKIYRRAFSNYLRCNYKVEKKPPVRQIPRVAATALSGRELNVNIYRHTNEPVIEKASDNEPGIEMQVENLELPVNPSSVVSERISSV
Protocol: (§1) Samples were then analyzed as described above.

5-HT2A (h) [2] = target: T2, 5-HT2A (h) (Homo sapiens, UniProt P28223); assay: 5-HT2A (h) agonist radioligand [125I](±)DOI binding
T2 construct: expressed in transfected cells; host or cells: HEK-293 cells
T2 sequence (P28223 whole entry): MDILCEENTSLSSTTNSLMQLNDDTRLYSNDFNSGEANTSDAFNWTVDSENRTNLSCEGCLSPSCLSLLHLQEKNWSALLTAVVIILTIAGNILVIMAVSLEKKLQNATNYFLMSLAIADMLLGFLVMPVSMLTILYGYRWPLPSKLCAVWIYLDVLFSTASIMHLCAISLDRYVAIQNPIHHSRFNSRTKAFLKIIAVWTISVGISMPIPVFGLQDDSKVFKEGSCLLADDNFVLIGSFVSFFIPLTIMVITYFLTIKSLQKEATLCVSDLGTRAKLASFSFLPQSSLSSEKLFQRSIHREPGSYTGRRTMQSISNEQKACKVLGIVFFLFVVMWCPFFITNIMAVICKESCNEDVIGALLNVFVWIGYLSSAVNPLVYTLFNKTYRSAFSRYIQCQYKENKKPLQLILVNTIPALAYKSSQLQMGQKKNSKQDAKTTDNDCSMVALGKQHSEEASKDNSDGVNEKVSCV

5-HT2B (h) [3] = target: T3, 5-HT2B (h) (Homo sapiens, UniProt P41595); assay: 5-HT2B (h) agonist radioligand [125I](±)DOI binding
T3 construct: expressed in transfected cells; host or cells: CHO cells
T3 sequence (P41595 whole entry): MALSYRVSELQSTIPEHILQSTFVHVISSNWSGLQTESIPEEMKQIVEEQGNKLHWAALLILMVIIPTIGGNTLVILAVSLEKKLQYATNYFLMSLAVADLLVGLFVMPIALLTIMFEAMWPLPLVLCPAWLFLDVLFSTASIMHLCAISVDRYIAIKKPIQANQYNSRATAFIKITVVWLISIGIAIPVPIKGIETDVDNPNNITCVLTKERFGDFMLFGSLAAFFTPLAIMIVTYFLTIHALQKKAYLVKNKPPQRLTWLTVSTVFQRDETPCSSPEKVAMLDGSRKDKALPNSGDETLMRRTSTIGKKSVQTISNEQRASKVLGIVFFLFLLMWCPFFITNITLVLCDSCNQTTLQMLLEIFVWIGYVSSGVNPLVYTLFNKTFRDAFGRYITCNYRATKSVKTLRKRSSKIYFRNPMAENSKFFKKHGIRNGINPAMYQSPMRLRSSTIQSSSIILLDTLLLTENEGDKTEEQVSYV
Protocol: as §1

5-HT transporter (h) [4] = target: T4, 5-HT transporter (h) (Homo sapiens, UniProt P31645); assay: 5-HT transporter (h) binding, [3H]imipramine
T4 construct: expressed in transfected cells; host or cells: CHO cells
T4 sequence (P31645 whole entry): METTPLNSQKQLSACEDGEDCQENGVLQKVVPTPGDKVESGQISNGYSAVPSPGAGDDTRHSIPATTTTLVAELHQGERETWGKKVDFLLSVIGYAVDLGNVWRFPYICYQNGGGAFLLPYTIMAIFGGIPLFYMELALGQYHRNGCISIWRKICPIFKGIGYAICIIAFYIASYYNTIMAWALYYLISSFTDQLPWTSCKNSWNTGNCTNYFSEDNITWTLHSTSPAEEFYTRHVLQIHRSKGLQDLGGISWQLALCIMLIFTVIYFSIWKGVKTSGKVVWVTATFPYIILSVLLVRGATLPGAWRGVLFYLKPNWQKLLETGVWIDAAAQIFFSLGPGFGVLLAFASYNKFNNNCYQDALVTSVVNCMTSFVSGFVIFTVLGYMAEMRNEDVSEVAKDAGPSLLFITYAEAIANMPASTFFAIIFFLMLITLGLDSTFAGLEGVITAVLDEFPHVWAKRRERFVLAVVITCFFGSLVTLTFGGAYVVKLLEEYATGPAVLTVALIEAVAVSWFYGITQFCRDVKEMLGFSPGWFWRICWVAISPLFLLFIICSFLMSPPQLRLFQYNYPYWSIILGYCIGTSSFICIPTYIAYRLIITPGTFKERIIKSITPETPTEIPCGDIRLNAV

[5] = target: T5, norepinephrine transporter (h) (Homo sapiens, UniProt P23975); settings: read-out: Binding NET Ki; literature, racemic; cited from earlier work
T5 construct: expressed in transfected cells; host or cells: CHO cells
T5 sequence (P23975 whole entry): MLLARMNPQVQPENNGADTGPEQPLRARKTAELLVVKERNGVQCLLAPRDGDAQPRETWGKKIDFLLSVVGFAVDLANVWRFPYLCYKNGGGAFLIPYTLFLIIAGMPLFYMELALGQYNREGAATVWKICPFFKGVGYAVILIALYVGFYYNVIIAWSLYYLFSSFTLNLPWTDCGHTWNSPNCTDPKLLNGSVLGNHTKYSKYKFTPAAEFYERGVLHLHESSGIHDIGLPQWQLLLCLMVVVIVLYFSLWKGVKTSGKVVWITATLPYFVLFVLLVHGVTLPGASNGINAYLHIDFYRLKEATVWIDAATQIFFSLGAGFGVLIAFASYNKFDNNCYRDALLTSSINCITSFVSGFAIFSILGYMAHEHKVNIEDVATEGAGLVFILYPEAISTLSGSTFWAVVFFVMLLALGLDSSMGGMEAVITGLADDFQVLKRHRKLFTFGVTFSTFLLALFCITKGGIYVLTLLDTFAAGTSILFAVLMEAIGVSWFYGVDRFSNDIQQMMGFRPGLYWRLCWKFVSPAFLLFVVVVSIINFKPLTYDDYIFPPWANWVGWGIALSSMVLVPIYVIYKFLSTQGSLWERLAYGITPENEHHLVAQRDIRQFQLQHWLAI

[6] = target: T6, Norepinephrine transporter (Homo sapiens, UniProt P23975); settings: racemic, cited from earlier work
T6 sequence (P23975 whole entry): as above

Dopamine transporter [7] = target: T7, Dopamine transporter (Homo sapiens, UniProt Q01959); settings: variable numbers in the literature, racemic, cited from earlier work
T7 sequence (Q01959 whole entry): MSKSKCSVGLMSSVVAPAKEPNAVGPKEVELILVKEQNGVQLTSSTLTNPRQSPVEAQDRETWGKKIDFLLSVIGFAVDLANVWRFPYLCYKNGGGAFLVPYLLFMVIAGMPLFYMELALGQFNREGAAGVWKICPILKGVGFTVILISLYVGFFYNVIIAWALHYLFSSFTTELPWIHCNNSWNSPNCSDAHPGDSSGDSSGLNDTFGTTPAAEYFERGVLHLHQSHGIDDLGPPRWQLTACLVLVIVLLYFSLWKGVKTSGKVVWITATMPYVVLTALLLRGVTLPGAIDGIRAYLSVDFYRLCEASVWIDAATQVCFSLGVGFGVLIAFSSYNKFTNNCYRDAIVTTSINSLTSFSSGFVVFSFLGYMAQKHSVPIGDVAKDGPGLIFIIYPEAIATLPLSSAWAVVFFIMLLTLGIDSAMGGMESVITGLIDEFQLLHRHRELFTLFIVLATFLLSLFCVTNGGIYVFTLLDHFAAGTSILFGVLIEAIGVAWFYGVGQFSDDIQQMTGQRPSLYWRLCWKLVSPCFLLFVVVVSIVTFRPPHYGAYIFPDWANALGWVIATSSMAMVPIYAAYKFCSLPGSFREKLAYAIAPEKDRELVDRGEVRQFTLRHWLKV

5-HT transporter (h) [8] = target: T4, 5-HT transporter (h); settings: read-out: Binding SERT Ki; literature, racemic; cited from earlier work
5-HT2A (h) [9] = target: T2, 5-HT2A (h); settings: read-out: Binding 5-HT2A Ki; antagonist radioligand; literature, racemic; cited from earlier work
Serotonin transporter = target: T8, Serotonin transporter (Rattus norvegicus, UniProt P31652); assay: Serotonin transporter uptake, rat brain synaptosomes; type: biochemical
T8 construct: from tissue
T8 sequence (P31652 whole entry): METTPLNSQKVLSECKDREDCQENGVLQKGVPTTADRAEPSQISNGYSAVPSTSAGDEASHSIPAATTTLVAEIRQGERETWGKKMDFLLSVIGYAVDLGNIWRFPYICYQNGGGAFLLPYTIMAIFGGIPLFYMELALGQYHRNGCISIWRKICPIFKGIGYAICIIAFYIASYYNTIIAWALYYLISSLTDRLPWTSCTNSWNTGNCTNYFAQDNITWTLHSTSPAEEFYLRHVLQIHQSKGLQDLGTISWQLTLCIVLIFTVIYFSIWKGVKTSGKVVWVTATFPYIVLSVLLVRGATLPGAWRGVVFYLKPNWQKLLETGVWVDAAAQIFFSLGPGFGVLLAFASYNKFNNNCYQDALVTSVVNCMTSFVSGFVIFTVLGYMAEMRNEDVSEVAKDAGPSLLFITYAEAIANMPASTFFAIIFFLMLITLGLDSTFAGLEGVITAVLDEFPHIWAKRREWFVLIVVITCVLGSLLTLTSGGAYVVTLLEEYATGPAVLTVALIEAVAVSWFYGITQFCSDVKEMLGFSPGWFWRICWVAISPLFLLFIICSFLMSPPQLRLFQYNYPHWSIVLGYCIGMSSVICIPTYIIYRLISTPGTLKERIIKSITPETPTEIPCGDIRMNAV

5-HT2A (h) [10] = target: T2, 5-HT2A (h); assay: 5-HT2A (h) agonist effect, IP1 HTRF functional assay; type: cell-based
[11] = target: T5, norepinephrine transporter (h); assay: norepinephrine transporter (h) binding, [3H]nisoxetine; settings: at 10 μM; table calls these values “No Binding”
[12] = target: T6, Norepinephrine transporter; assay: Norepinephrine transporter uptake (h); type: cell-based
5-HT2C (h) [13] = target: T1, 5-HT2C (h); assay: 5-HT2C (h) agonist effect, IP1 HTRF functional assay; type: cell-based
Dopamine transporter [14] = target: T7, Dopamine transporter; assay: Dopamine transporter uptake (h); type: cell-based
dopamine transporter (h) = target: T9, dopamine transporter (h) (Homo sapiens, UniProt Q01959); assay: dopamine transporter (h) binding, [3H]BTCP
T9 construct: expressed in transfected cells; host or cells: CHO cells
T9 sequence (Q01959 whole entry): as the sequence (Q01959 whole entry) above

5-HT2B (h) [15] = target: T3, 5-HT2B (h); assay: 5-HT2B (h) agonist effect, IP1 HTRF functional assay; type: cell-based
5-HT2A (h) [16] = target: T2, 5-HT2A (h); settings: literature, single enantiomers, cited from earlier work; for EC50: read-out: Function 5-HT2A EC50
5-HT2C (h) [17] = target: T1, 5-HT2C (h); settings: literature, single enantiomers; cited from earlier work
5-HT2A receptor = target: T10, 5-HT2A receptor (Homo sapiens, UniProt P28223); settings: literature value (Rickli et al. 2016); cited from earlier work
T10 construct: host or cells: HEK293 (ATCC CRL-1573), transient, membranes
T10 sequence (P28223 whole entry): as the sequence (P28223 whole entry) above

[18] = Hill coefficient, reference compound result
[19] = agonist radioligand [125I](±)DOI, reference compound result
[20] = read-out: Function DAT IC50, lower end of literature range
[21] = read-out: Function DAT IC50, upper end of literature range

With `COc1cc(CC(C)N)c(OC)cc1I` (racemic) [(±)DOI] the nH (5-HT2C (h) [1]; [18]) was 0.9, the IC50 (5-HT2C (h) [1]; [19]) was 0.37 nM and the Ki (5-HT2C (h) [1]; [19]) was 0.33 nM. For the same molecule, the nH (5-HT2A (h) [2]; [18]) was 1.0, the nH (5-HT2B (h) [3]; [18]) was 1.1 and the IC50 (5-HT2B (h) [3]; [19]) was 3.8 nM. The Ki (5-HT2B (h) [3]; [19]) was 1.9 nM.
For `CN(C)CCCN1c2ccccc2CCc2ccccc21` [imipramine, reference compound], the nH (5-HT transporter (h) [4]; [18]) was 1.2.
For `CNC(C)Cc1ccc2c(c1)OCO2` (centres unmarked) [MDMA, 3,4-methylenedioxymethamphetamine], the Ki [5] is listed as greater than 10000 nM, the IC50 ([6]; read-out: Function NET IC50, lower end of literature range, variable numbers in the literature) is listed as no less than 108 nM and the IC50 ([6]; read-out: Function NET IC50, upper end of literature range, variable numbers in the literature) is listed as no more than 6600 nM. The IC50 (Dopamine transporter [7]; [20]) was no less than 410 nM, the IC50 (Dopamine transporter [7]; [21]) was no more than 17000 nM and the Ki (5-HT transporter (h) [8]) was greater than 10000 nM. For the same molecule, the Ki (5-HT2A (h) [9]) was 7800 nM.
For `CC(N)Cc1ccc2c(c1)OCS2` (racemic) [II-16 (racemic)], the inhibition at up to 100 µM (Serotonin transporter; across dose range tested (1, 3, 10, 100 μM), read-out: Function SERT, inhibition of SERT) was 95.3 to 106%, the IC50 (Serotonin transporter; blocking reuptake of 5-HT, read-out: Function SERT Estimated IC50) was less than 200 nM and the “Function SERT (blocking reuptake of 5-HT), efficacy in words” value (Serotonin transporter; tested at 1, 3, 10, 100 μM) was “Full efficacy,”. For the same molecule, the “Binding 5-HT2C (agonist radioligand), % competition” value (5-HT2C (h) [1]; at 10 μM) was 98.4% competition, the “Binding 5-HT2A (agonist radioligand), % competition” value (5-HT2A (h) [2]; at 10 μM) was 94.4% competition and the EC50 (5-HT2A (h) [10]; IP-1, estimated from four concentrations, read-out: Function 5-HT2A Estimated EC50) was 2500 nM. The Emax at 10 µM (5-HT2A (h) [10]; at 10 μM, relative to 5-HT, read-out: Function 5-HT2A EMAX) was 89.8%, the “Function 5-HT2A (IP-1, efficacy relative to 5-HT), agonist type” value (5-HT2A (h) [10]; tested at 1, 3, 10, 100 μM) was “Nearly full agonist -” and the “Binding NET (antagonist radioligand), % competition” value [11] was 25.2% competition. For the same molecule, the inhibition at 10 µM ([12]; at 10 μM, read-out: Function NET, inhibition of NET) was 93.5%, the IC50 ([12]; blocking reuptake of NE, read-out: Function NET Estimated IC50) was less than 1000 nM and the “Function NET (blocking reuptake of NE), efficacy in words” value ([12]; tested at 1, 10, 100 μM) was “Near full efficacy,”. The EC50 (5-HT2C (h) [13]; Gq-IP1, estimated from four concentrations, read-out: Function 5-HT2C Estimated EC50) was less than 800 nM, the Emax at 10 µM (5-HT2C (h) [13]; at 10 μM, relative to 5-HT, read-out: Function 5-HT2C EMAX) was 99.3% and the “Function 5-HT2C (Gq-IP1, efficacy relative to 5-HT), agonist type” value (5-HT2C (h) [13]; tested at 1, 3, 10, 100 μM) was “Full agonist -”. The inhibition at 100 µM (Dopamine transporter [14]; at 100 μM, read-out: Function DAT, inhibition of DAT) was 99.1%, the IC50 (Dopamine transporter [14]; blocking reuptake of DA, read-out: Function DAT Estimated IC50) was roughly 1000 nM and the “Function DAT (blocking reuptake of DA), efficacy in words” value (Dopamine transporter [14]; tested at 1, 10, 100 μM) was “Full efficacy,”. For the same molecule, the “Binding DAT (antagonist radioligand), % competition” value (dopamine transporter (h); at 10 μM, table calls these values “No Binding”) was 15.7% competition, the “Binding 5-HT2B (agonist radioligand), % competition” value (5-HT2B (h) [3]; at 10 μM) was 100.1% competition and the EC50 (5-HT2B (h) [15]; Gq-IP1, estimated from four concentrations, read-out: Function 5-HT2B Estimated EC50) was less than 500 nM. The Emax at 1 µM (5-HT2B (h) [15]; at 1 μM, relative to 5-HT, read-out: Function 5-HT2B EMAX) was 100%, the “Function 5-HT2B (Gq-IP1, efficacy relative to 5-HT), agonist type” value (5-HT2B (h) [15]; tested at 1, 3, 10, 100 μM) was “Full agonist -” and the “Binding SERT (antagonist radioligand), % competition” value (5-HT transporter (h) [4]; at 10 μM) was 68.1% competition.
In the case of `CN[C@H](C)Cc1ccc2c(c1)OCO2` [R-MDMA], the “Function 5-HT2A EMAX” value (5-HT2A (h) [16]) is given as “EMAX = 21%”, the EC50 (5-HT2A (h) [16]) is given as 3100 nM and the “Function 5-HT2C EMAX” value (5-HT2C (h) [17]) is given as “EMAX = 27%”.
For `CN[C@@H](C)Cc1ccc2c(c1)OCO2` [S-MDMA], the “Function 5-HT2A EMAX” value (5-HT2A (h) [16]) is listed as “EMAX = 9%”, the EC50 (5-HT2A (h) [16]) is listed as 10300 nM and the “Function 5-HT2C EMAX” value (5-HT2C (h) [17]) is listed as “EMAX = 53%”.
In the case of `COc1cc(CCN)cc(OC)c1OC` [Reference Compound 1, 3,4,5-trimethoxyphenethylamine], the Ki (5-HT2A receptor) is listed as 6300 nM.
`c1ccc2sc(C3(N4CCCCC4)CCCCC3)cc2c1` [BTCP, reference compound] showed a nH (dopamine transporter (h); [18]) of 1.0.
In the case of `CC(N)Cc1ccc2c(c1)OCO2` (centres unmarked) [MDA, 3,4-methylenedioxyamphetamine], the IC50 ([6]; read-out: Function NET IC50, literature) is listed as roughly 300 nM, the IC50 (Dopamine transporter [7]; [20]) is listed as no less than 890 nM and the IC50 (Dopamine transporter [7]; [21]) is listed as no more than 21000 nM.

Reference: patent US20250145566A1, “PHENETHYLAMINE DERIVATIVES, COMPOSITIONS, AND METHODS OF USE” (Cybin IRL Limited, priority 2022, published 2025)
